Measured values from US7572885B2, “Isolated GAGE-7B and 8 proteins” (Ludwig Institute For Cancer Research, priority 1998, dated 2009).

Columns and labels:
[1] = tested on: GAGE genes expression in PHA stimulated PBLs; assay: Induction of GAGE gene expression by demethylation in PHA stimulated PBLs; assay type: cell-based; details: 1 uM, 72 hours in culture medium
Protocol: (§1) These experiments were designed to determine expression of GAGE genes in various cell and tumor types. For each type of cell assayed, total RNA was extracted, using standard guanidium-isothiocyanate procedures, as taught by e.g., Davis, et al. in Basic Methods In Molecular Biology, Elsevier Science Publishing Co., New York (1986), pp. 130-135. Reverse transcription was carried out on 2 ug samples of the total RNA, using 2 mM of Oligo(dT)15 primer, in a reaction volume of 20 ul. Portions of the resulting cDNA ( 1/20 of the product), were used in the PCR amplification. In order to amplify GAGE-1, 2, and 8, the primers used were:
(§2) For GAGE-3, 4, 5, 6; & 7B, the primers were: • 5′- GACCAAGGCG CTATGTAC-3′ • (sense, SEQ ID NO: 6) and SEQ ID NO: 5 For all amplifications, the denaturation step was 94° C. for 5 minutes, then 30 cycles of amplification (1 minute at 94° C., 2 minutes at 58° C., 2 minutes at 72° C.), then a final extension step of 72° C. for 15 minutes. The products were analyzed by agarose gel electrophoresis, with RNA integrity being checked by reverse transcription and amplification of β-actin mRNA.
(§3) In order to determine if expression of GAGE genes could be induced by demethylation, samples of cultured tumor and normal cells were incubated for 72 hours in culture medium containing 1 uM 5-aza-2′-deoxycytidine. SEQ ID NOS: 4 and 5, supra, were used in the amplification protocol.

[2] = tested on: GAGE 1, 2, and 8 expression in sarcoma and melanoma cell lines; assay: Induction of GAGE gene expression by demethylation, RT-PCR with SEQ ID NOS: 4 and 5; assay type: cell-based; details: 1 uM, 72 hours in culture medium
Protocol: as §1, §2, §3

SMILES: Nc1ncn([C@H]2C[C@H](O)[C@@H](CO)O2)c(=O)n1 [5-aza-2′-deoxycytidine]
- expression of all GAGE genes following treatment [1]: expressed
- expression of GAGE 1, 2, and 8 after demethylating treatment [2]: induced
